# Assay results taken from patent US7700559B2, “Gonadotropin releasing hormone analogues conjugates with steroid hormones” (Medical Research Council, priority 2003, dated 2010).
# Like-named read-outs stand apart in the source and are kept apart here. Non-standard residues stand in square brackets, D forms with d. Residues, ends and D or L forms follow the SMILES beside them. *: point of attachment. X1 = C[C@]12CC[C@H]3[C@@H](CCC4=CC(=O)CC[C@@]43C)[C@@H]1CC[C@@H]2C(=O)COC(=O)CCC(=O)*; dPhe(4-Cl) = N[C@H](Cc1ccc(Cl)cc1)C(=O)O; dPhe(4-F) = N[C@H](Cc1ccc(F)cc1)C(=O)O; d2Nal = N[C@H](Cc1ccc2ccccc2c1)C(=O)O; d3Pal = N[C@H](Cc1cccnc1)C(=O)O; ΔPro = O=C(O)[C@@H]1C=CCN1
# What was measured:
# [1] = test system: male marmosets; assay: In vivo male marmoset study, plasma testosterone after s.c. injection; design: species or system Callithrix jacchus; settings: 0.5 mg s.c.
# Experimental: (§1) In Vivo Studies in the Male and Female Common Marmoset (Callithrix Jacchus)
# Male marmoset studies: To determine duration of action at GnRH receptor, 0.5 mg GnRH antagonist-steroid conjugate was administered as subcutaneous bolus in 1 ml saline at two sites in six adult male marmosets. Testosterone concentrations were monitored by RIA. GnRH antagonist (0.5 mg) was administered as a subcutaneous bolus in 1 ml saline at two sites in three marmosets. Testosterone concentrations were monitored. One 300 μl blood sample was withdrawn on the day prior to GnRH antagonist injection and at 0 hours, 4 hours and 8 hours on the day of injection and on the following 3 days. Three further samples were taken during the subsequent week.
# [2] = test system: cycling adult female marmosets; assay: In vivo female marmoset study, inhibition of corpus luteum function; design: species or system Callithrix jacchus; settings: one animal; for duration of the luteal phase after treatment: mid-luteal phase
# Experimental: as §1
# Female marmoset studies: To identify the effective dose required to inhibit corpus luteum function, 1.0, 0.5 or 0.25 mg of GnRH antagonist-steroid conjugate was administered as subcutaneous bolus in 1 ml saline at two sites during mid-luteal phase. Progesterone concentrations were monitored by RIA. One 300 μl blood sample was withdrawn on the day prior to GnRH antagonist injection. Further blood samples of equal size were withdrawn at 0, 4 and 8 hours on day of injection and on the following 3 days. Blood samples were taken three times per week until the next ovulation.
# [3] = molecular target: progesterone binding globulin (PBG); assay: Plasma protein binding assay, competition with [3H]progesterone in pregnant guinea pig plasma; settings: for IC50: read-out: IC50, inhibition of [3H]progesterone binding to PBG
# Experimental: (§2) Plasma Protein Binding Assay
# (§3) Plasma protein binding was determined by the competitive binding of steroid conjugates, in the presence of [1,2,6,7-^3H]progesterone or [^3H]cortisol, to pregnant guinea pig plasma or human pregnant serum respectively. 20 μl serum was diluted with 2 ml dextran-coated charcoal solution (0.25 g dextran T-70, 2.5 g charcoal decolorizing powder, activated acid washed [Merck Ltd., Lutterworth, Leicestershire] in 500 ml PBS) and incubated at room temperature. After 30 mins the suspension was centrifuged at 3000×g for 10 minutes, the supernatant was removed and the pellet was discarded. 100 μl of diluted serum was aliquoted into centrifuge tubes, followed by 1 pmol[^3H]steroid/100 μl PBS. 100 μl PBS (total binding) or 200 pmol/100 μl unlabelled competing ligand ([…]) was added to diluted serum in duplicate. Tubes were vortexed and incubated at room temperature for 1 hour, then for an additional 15 minutes on ice. A further 750 μl dextran-coated charcoal suspension was added and incubated for 10 minutes on ice, followed by centrifugation at 4° C. for 5 minutes. The supernatant fluid was counted.
# [4] = molecular target: T1, cortisol binding globulin (CBG) (Homo sapiens, UniProt P08185); assay: Plasma protein binding assay, competition with [3H]cortisol in human pregnant serum; settings: data not shown, read-out: IC50, prevention of [3H]cortisol binding
# T1 construct: from tissue; host or cells: human pregnant serum (charcoal-stripped, diluted)
# T1 sequence (P08185 23-405): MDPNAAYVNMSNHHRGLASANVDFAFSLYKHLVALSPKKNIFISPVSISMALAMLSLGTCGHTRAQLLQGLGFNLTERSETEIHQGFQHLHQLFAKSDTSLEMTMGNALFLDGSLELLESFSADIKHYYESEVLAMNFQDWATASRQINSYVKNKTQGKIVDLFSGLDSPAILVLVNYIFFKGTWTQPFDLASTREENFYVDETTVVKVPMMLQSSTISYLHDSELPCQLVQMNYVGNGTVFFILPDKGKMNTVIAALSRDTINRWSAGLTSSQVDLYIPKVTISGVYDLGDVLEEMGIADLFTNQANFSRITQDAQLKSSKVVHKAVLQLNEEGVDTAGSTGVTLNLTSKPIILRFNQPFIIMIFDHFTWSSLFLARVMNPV
# Experimental: as §2, §3
# [5] = In vivo male rabbit study, disappearance of iodinated analogue from whole blood; settings: rabbit, in vivo, iv
# Experimental: In Vivo Studies in the Male Rabbit
# To determine biological half-life of GnRH agonist-progesterone conjugates, 0.5 ml saline containing approximately 10,000,000 cpm of iodinated [D-Ala^6]GnRH or [D-Lys^6]GnRH-progesterone conjugate was injected as an i.v. bolus into the ear vein of a male rabbit. Rabbits were sedated with 0.4 ml Aceprom 10 (Milborrow Animal Health, Republic of South Africa) injected intramuscularly 3-4 minutes before start of experiment. A repeat injection was carried out after 2 hours. 1 ml blood samples were collected in heparinized tubes from an indwelling cannula placed in a vein of the contralateral ear. Whole blood was counted directly to determine disappearance from circulation. All experiments were carried out in accordance with Republic of South Africa regulations.
compound,measurement,setting,value
"CC(=O)N[C@H](Cc1ccc2ccccc2c1)C(=O)N[C@H](Cc1ccc(Cl)cc1)C(=O)N[C@H](Cc1cccnc1)C(=O)N[C@@H](CO)C(=O)N[C@@H](CCCNC(=N)N)C(=O)N[C@H](CCCCN)C(=O)N[C@@H](CC(C)C)C(=O)N[C@@H](CCCNC(=N)N)C(=O)N1CCC[C@H]1C(=O)N[C@H](C)C(N)=O [antagonist A, [AcD-Nal^1,D-Cpa^2,D-Pal^3,Arg^5,D-Lys^6,D-Ala^10]GnRH, reference compound] (Ac-[d2Nal][dPhe(4-Cl)][d3Pal]SR[dK]LRP[dA]-NH2)",effect on plasma testosterone concentrations,[1],rapid decline in plasma testosterone concentrations
same,time by which testosterone had increased again,[1],≤ 24 h
same,time to which reduction in testosterone concentration was maintained post-injection,[1],8 h
"CC(=O)N[C@H](Cc1ccc2ccccc2c1)C(=O)N[C@H](Cc1ccc(Cl)cc1)C(=O)N[C@H](Cc1cccnc1)C(=O)N[C@@H](CO)C(=O)N[C@@H](CCCNC(=N)N)C(=O)N[C@H](CCCCNC(=O)CCC(=O)OCC(=O)[C@H]1CC[C@H]2[C@@H]3CCC4=CC(=O)CC[C@]4(C)[C@H]3CC[C@]12C)C(=O)N[C@@H](CC(C)C)C(=O)N[C@@H](CCCNC(=N)N)C(=O)N1CCC[C@H]1C(=O)N[C@H](C)C(N)=O [antagonist A-progesterone, AcD-Nal-D-Cpa-D-Pal-Ser-Arg-D-Lys-Leu-Arg-Pro-D-Ala-NH2 conjugated to 21-hydroxyprogesterone 21-succinate at the ε amine of D-Lys at position 6] (Ac-[d2Nal][dPhe(4-Cl)][d3Pal]SR[dK](X1)LRP[dA]-NH2)",luteal regression and subsequent ovulation,[2]; 0.25 mg s.c.,full luteal regression and subsequent ovulation did not occur
same,plasma progesterone concentrations,[2]; 0.25 mg s.c.,transient reduction in plasma progesterone concentrations
same,duration of the luteal phase after treatment,"[2]; 0.5 mg s.c., before 21.0±1.2 days",11 days
same,duration of the luteal phase after treatment,"[2]; 1.0 mg s.c., before 24.8±2.2 days",8 days
same,IC50,[3]; listed as antagonist A-progesterone conjugate,1000 nM
same,IC50,[3]; listed as antagonist peptide A-progesterone,850 nM
same,day by which testosterone had recovered,[1],≤ 6 days
same,effect on plasma testosterone concentrations,[1],rapidly decreased testosterone concentrations
same,time to which reduction in testosterone concentration was maintained post-injection,[1],at least 72 hours
"CC(=O)N1CC=C[C@H]1C(=O)N[C@H](Cc1ccc(F)cc1)C(=O)N[C@H](Cc1c[nH]c2ccccc12)C(=O)N[C@@H](CO)C(=O)N[C@@H](Cc1ccc(O)cc1)C(=O)N[C@H](CCCCNC(=O)CCC(=O)OCC(=O)[C@H]1CC[C@H]2[C@@H]3CCC4=CC(=O)CC[C@]4(C)[C@H]3CC[C@]12C)C(=O)N[C@@H](CC(C)C)C(=O)N[C@@H](CCCNC(=N)N)C(=O)N1CCC[C@H]1C(=O)NCC(N)=O [antagonist B-progesterone, Ac-ΔPro-D-Fpa-D-Trp-Ser-Tyr-D-Lys-Leu-Arg-Pro-Gly-NH2 conjugated to 21-hydroxyprogesterone 21-succinate at the ε amine of D-Lys at position 6] (Ac-[ΔPro][dPhe(4-F)][dW]SY[dK](X1)LRPG-NH2)",IC50,[3]; listed as antagonist B-progesterone conjugate,530 nM
same,IC50,[3]; listed as antagonist peptide B-progesterone,450 nM
"C[C@]12CCC(=O)C=C1CC[C@@H]1[C@@H]2[C@@H](O)C[C@@]2(C)[C@H]1CC[C@]2(O)C(=O)CO [cortisol, reference compound]",inhibition of specific [3H]progesterone binding (specificity),[3],failure of cortisol to inhibit specific [^3H]progesterone binding
same,IC50,[4],6.7 nM
"CC(=O)[C@H]1CC[C@H]2[C@@H]3CCC4=CC(=O)CC[C@]4(C)[C@H]3CC[C@]12C [progesterone, reference compound]",IC50,[3],96 nM
same,IC50,[4],73 nM
[D-Ala^6]GnRH [reference compound],second phase half-life (metabolism and renal clearance),[5],21 ± 3 min
